From article PMC7922932, “Molecular Dissection of Escherichia coli CpdB: Roles of the N Domain in Catalysis and Phosphate Inhibition, and of the C Domain in Substrate Specificity and Adenosine Inhibition” (International Journal of Molecular Sciences, 2021)
“And” between values parts separate entries of the source, which are not always exact repeats. Equal values may be shown once. Read-outs that look alike come from different tables or passages of the source.

Tests used:
[1] = molecular target: T1, Mature CpdB (Escherichia coli, UniProt P08331); assay: biochemical; format: biochemical; set-up: A structural model of mature CpdB (aa 20–647) was built; GST (N, cleaved yes); made in house; host or cells: E. coli BL21; details: mature CpdB; for IC50: 750 µM bis-4-NPP as the substrate, single illustrative experiments, read-out: IC50; for Ki: substrate bis-4-NPP, global fit, mixed partial inhibition (Figure 5), values without SD are single experiments, read-out: Inhibition constant (Ki)
Description: (§1) Reaction mixtures of 100 µL contained, besides the needed amount of enzyme (i.e., 0.02–0.05 µg/mL of mature CpdB, 2 µg/mL of a CpdB point mutant, or 0.2 µg/mL of CpdB_Ndom), 50 mM Tris [Tris(hydroxymethyl)aminomethane]-HCl pH 7.5 (adjusted at 37 °C), 2 mM MnCl2, 0.1 mg/mL bovine serum albumin, and the indicated concentrations of bis-4-NPP and the compound tested as inhibitor. Incubations performed at 37 °C were stopped by addition of 0.5 mL of 200 mM Tris, pH 8.9, 5 mM EDTA (ethylenediaminetetraacetate), immediately followed by A405 measurement (ε = 18.1 mM^−1 cm^−1). This termination procedure was used instead of the addition of a high NaOH concentration, to avoid the known formation of brown precipitates of air-oxidized Mn^2+ hydroxide. On occasions, when a higher sensitivity was needed, reaction mixtures of 500 µL were implemented and termination was performed with 0.1 mL 1M Tris, pH 8.9, 30 mM EDTA.

[2] = molecular target: T2, CpdB_Ndom (N-terminal domain of CpdB) (Escherichia coli, UniProt P08331, D305N/I97V/M87I); format: biochemical; details: for K M / k cat / k cat /K M: CpdB_Ndom, substance is the substrate, mean ± SD of three experiments; for Activity of CpdB_Ndom on substrate (hydrolytic rate): fixed 750 µM substrate concentration
T2 construct: GST (N, cleaved yes); made in house; host or cells: E. coli BL21
Description: With all the detectably hydrolyzed substrates, saturation kinetics was studied and parameters kcat and KM were determined from Michaelis-Menten plots (Table 1).
The same assay was used with 2′,3′- or 3′,5′-cyclic nucleotides, CDP-choline and bis-4-NPP except that an excess of alkaline phosphatase was included in the reaction mixture as auxiliary enzyme.
Datasets obtained with different substrates in the absence of inhibitors were used to derive kcat and KM values by adjusting the Michaelis-Menten equation to the experimental points by non-linear regression.

[3] = molecular target: T1, Mature CpdB; set-up: A structural model of mature CpdB (aa 20–647) was built; GST (N, cleaved yes); made in house; host or cells: E. coli BL21; details: substance is the substrate; cited from earlier work
[4] = molecular target: T3, CpdB_Ndom (Escherichia coli, UniProt P08331, D305N/I97V/M87I); assay: biochemical; details: CpdB_Ndom; substrate bis-4-NPP; global fit, complete competitive inhibition (Figure 7); read-out: Inhibition constant (Ki)
T3 construct: GST (N, cleaved yes); made in house; host or cells: E. coli BL21
Description: Substrate saturation experiments were run in the absence and the presence of one of these inhibitors at fixed concentrations (Figure 7).
as §1

[5] = molecular target: T1, Mature CpdB; details: for Ki: read-out: Inhibition constant (Ki), mature CpdB, substrate 3′-AMP, global fit, mixed partial inhibition (Figure 5)
Description: In this approach, inhibitors were used as probes for the relevance of those enzyme sites, irrespective of the physiological character and concentrations of the compounds used.
The procedures and detailed conditions to measure the initial rates of phosphohydrolytic reactions were as earlier described [4]. […] The same assay was used with 2′,3′- or 3′,5′-cyclic nucleotides, CDP-choline and bis-4-NPP except that an excess of alkaline phosphatase was included in the reaction mixture as auxiliary enzyme.
The procedures followed to derive kinetic parameters kcat, KM and Ki from initial rate vs. substrate concentration datasets, either in the presence or the absence of inhibitor, were as described elsewhere [49]. Datasets obtained with different substrates in the absence of inhibitors were used to derive kcat and KM values by adjusting the Michaelis-Menten equation to the experimental points by non-linear regression. […] Each one of these equations was simultaneously adjusted (global fit) by nonlinear regression to the three saturation curves of each inhibition experiment, using the Solver function of Microsoft Excel. During the adjustments, Vmax, KM and Ki were left to fluctuate. […] In each set of experiments, the type of inhibition that gave the best fit was used as the model to estimate Ki values.

[6] = molecular target: T3, CpdB_Ndom; format: biochemical; details: CpdB_Ndom; for IC50: 750 µM bis-4-NPP as the substrate, single illustrative experiments; for Ki: substrate bis-4-NPP, estimated from inhibitor dose-response curves (Figure 6), read-out: Inhibition constant (Ki)
[7] = molecular target: T4, His^117Ala-CpdB (Escherichia coli, UniProt P08331, D305N/H117A/I514V/I97V/M87I/N471D/S472N); format: biochemical
T4 construct: A structural model of mature CpdB (aa 20–647) was built; GST (N, cleaved yes); made in house; host or cells: E. coli BL21
Text: (§2) The role of the possible catalytic and substrate-binding sites was additionally tested by the preparation of two point mutants of the mature CpdB protein. On the one hand, the mutation His^117Ala modified the histidine residue conserved in the N domain (Figure 1b) with respect to UshA, where it has been proposed to be part of the catalytic core structure and to act as a general base that facilitates the nucleophilic attack by deprotonating a water molecule, and to participate in the stabilization of the transition state. […] On the other hand, mutation Tyr^544Ala modified one of the aromatic residues of CpdB which are conserved in the C domain with respect to the UshA phenylalanine residues that form a stacked sandwich with the adenine ring of the substrate.

[8] = molecular target: T5, Tyr^544Ala-CpdB (Escherichia coli, UniProt P08331, D305N/I514V/I97V/M87I/N471D/S472N/Y544A); format: biochemical; details: Tyr^544Ala-CpdB; substance is the substrate
T5 construct: A structural model of mature CpdB (aa 20–647) was built; GST (N, cleaved yes); made in house; host or cells: E. coli BL21
Text: as §2

[9] = tested on: Tyr^544Ala-CpdB; format: biochemical, Escherichia coli; details: Tyr^544Ala-CpdB versus wild-type mature CpdB
Text: as §2

[10] = His^117Ala-CpdB, substance is the substrate

T2 sequence (P08331 20-354 M87I/I97V/D305N): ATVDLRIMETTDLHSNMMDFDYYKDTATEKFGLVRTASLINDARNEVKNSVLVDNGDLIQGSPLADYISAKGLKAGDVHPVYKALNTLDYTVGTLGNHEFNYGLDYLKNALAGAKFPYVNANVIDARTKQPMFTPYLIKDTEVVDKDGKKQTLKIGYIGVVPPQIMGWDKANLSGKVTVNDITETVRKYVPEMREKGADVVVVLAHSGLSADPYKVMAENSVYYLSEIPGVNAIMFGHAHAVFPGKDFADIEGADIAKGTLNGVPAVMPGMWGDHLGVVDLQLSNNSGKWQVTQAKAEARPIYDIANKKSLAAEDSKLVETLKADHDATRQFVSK
T3 sequence (P08331 20-354 M87I/I97V/D305N): as above
T4 sequence (P08331 20-647 M87I/I97V/H117A/D305N/N471D/S472N/I514V): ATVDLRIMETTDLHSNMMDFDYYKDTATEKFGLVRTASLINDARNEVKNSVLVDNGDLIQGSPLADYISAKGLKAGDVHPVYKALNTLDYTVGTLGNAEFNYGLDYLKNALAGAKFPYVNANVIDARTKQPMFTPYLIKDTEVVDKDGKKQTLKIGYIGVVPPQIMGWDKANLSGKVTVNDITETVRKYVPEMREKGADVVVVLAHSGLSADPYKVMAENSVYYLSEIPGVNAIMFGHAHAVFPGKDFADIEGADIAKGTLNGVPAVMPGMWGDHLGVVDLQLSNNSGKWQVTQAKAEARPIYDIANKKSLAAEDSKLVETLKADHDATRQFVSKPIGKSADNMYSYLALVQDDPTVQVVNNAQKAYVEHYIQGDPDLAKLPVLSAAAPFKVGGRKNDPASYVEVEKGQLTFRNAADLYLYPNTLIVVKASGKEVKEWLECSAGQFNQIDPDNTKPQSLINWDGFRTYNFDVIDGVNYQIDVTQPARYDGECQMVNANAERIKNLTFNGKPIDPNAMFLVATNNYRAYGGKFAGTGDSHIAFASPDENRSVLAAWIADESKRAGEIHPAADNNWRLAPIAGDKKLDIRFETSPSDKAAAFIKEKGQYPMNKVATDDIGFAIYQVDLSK
T5 sequence (P08331 20-647 M87I/I97V/D305N/N471D/S472N/I514V/Y544A): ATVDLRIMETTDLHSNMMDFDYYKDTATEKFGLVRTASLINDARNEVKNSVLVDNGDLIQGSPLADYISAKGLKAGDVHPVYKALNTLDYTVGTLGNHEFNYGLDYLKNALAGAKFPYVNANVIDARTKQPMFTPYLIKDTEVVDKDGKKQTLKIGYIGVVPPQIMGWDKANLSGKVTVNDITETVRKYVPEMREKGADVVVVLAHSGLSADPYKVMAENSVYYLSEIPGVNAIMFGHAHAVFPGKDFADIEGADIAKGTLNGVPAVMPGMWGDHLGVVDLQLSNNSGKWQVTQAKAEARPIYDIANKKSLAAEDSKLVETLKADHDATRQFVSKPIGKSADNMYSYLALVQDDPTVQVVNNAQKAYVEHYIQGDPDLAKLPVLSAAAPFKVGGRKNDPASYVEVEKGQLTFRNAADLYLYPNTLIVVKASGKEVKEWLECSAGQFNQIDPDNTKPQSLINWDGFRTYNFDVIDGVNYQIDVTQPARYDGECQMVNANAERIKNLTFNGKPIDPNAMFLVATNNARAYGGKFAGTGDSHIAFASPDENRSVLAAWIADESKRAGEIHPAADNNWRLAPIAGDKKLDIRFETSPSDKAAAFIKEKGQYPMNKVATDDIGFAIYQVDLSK
T1 sequence (P08331 20-647): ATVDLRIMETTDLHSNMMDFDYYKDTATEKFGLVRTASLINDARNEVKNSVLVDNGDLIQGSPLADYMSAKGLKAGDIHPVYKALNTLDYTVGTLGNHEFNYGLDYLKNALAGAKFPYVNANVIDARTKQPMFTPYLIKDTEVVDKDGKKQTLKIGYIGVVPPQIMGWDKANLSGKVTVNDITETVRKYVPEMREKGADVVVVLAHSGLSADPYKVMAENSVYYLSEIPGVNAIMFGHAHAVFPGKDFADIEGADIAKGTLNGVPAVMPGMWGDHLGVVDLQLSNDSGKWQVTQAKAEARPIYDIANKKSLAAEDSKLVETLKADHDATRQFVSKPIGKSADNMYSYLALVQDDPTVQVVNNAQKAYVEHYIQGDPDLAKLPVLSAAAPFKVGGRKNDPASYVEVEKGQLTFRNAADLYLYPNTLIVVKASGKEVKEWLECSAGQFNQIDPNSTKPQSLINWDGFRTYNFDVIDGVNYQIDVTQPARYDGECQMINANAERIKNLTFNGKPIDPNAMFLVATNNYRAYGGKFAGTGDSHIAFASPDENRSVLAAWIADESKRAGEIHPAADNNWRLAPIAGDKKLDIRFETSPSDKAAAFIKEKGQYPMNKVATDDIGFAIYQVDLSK

## Nc1ncnc2c1ncn2[C@@H]1O[C@H](COP(=O)(O)OP(=O)(O)O)[C@@H](O)[C@H]1O [ADP]
[1]
  IC50: 1100 µM
  Ki: 60 µM

## Nc1ncnc2c1ncn2[C@@H]1O[C@@H]2COP(=O)(O)O[C@H]2[C@H]1O [3′,5′-cAMP]
[2]
  K M: 6900 ± 2600 µM
[3]
  K M: 4600 µM

## Nc1ncnc2c1ncn2[C@@H]1O[C@H](COP(=O)(O)O)[C@@H](O)[C@H]1O [5′-AMP]
[2]
  Activity of CpdB_Ndom on substrate (hydrolytic rate): absence of detectable activity
[4]
  Ki: 370 ± 50 µM
[5]
  IC50: 900 µM
  Ki: 20 ± 8 µM
[6]
  IC50: 560 µM
[1]
  IC50: 110 µM
  Ki: 14 µM

## Nc1ncnc2c1ncn2[C@@H]1O[C@H](COP(=O)(O)OP(=O)(O)OP(=O)(O)O)[C@@H](O)[C@H]1O [ATP]
[6]
  IC50: 8700 µM
  Ki: 5700 µM
[1]
  IC50: 720 µM
  Ki: 113 ± 19 µM

## Nc1ncnc2c1ncn2[C@@H]1O[C@H](COP(=O)(O)O[C@H]2[C@@H](O)[C@H](n3cnc4c(N)ncnc43)O[C@@H]2COP(=O)(O)O)[C@@H](O)[C@H]1O [pApA, 5′-phosphoadenylyl-3′→5′-adenosine]
[2]; CpdB_Ndom versus mature CpdB
  Stronger loss of catalytic efficiency than on c-di-AMP caused by the deletion of the C domain: 100 fold
[2]
  K M: 230 ± 40 µM
  k cat: 0.0004 ± 0.0001 s⁻¹
  k cat /K M: 1.8 ± 0.2 M⁻¹ s⁻¹
[3]
  K M: 0.6 µM
  k cat: 1.30 s⁻¹
  k cat /K M (catalytic efficiency): 2,300,000 M^−1 s^−1

## Nc1nc2c(ncn2[C@@H]2O[C@@H]3COP(=O)(O)O[C@H]4[C@@H](O)[C@H](n5cnc6c(=O)[nH]c(N)nc65)O[C@@H]4COP(=O)(O)O[C@H]3[C@H]2O)c(=O)[nH]1 [c-di-GMP, 3′,5′-cyclic diguanosine monophosphate]
[2]
  K M: 250 ± 30 µM
  k cat: 0.0003 ± 0.0001 s⁻¹
  k cat /K M: 1.2 ± 0.4 M⁻¹ s⁻¹
[3]
  K M: 6 µM
  k cat: 0.07 s⁻¹
  k cat /K M (catalytic efficiency): 13,000 M^−1 s^−1

## Nc1ncnc2c1ncn2[C@@H]1O[C@@H]2COP(=O)(O)O[C@H]3[C@@H](O)[C@H](n4cnc5c(N)ncnc54)O[C@@H]3COP(=O)(O)O[C@H]2[C@H]1O [c-di-AMP, 3′,5′-cyclic diadenosine monophosphate]
[2]
  K M: 3400 ± 2200 µM
  k cat: 0.012 ± 0.007 s⁻¹
  k cat /K M: 3.5 ± 0.1 M⁻¹ s⁻¹
[3]
  K M: 15 µM
  k cat: 0.40 s⁻¹
  k cat /K M (catalytic efficiency): 29,000 M^−1 s^−1

## Nc1ncnc2c1ncn2[C@@H]1O[C@H](CO)[C@@H](OP(=O)(O)O)[C@H]1O [3′-AMP]
[2]; CpdB_Ndom versus mature CpdB
  Stronger loss of catalytic efficiency than on 2′,3′-cAMP caused by the deletion of the C domain: 10^5 fold
[2]
  K M: 880 ± 250 µM
  k cat: 0.004 ± 0.0002 s⁻¹
  k cat /K M: 5 M⁻¹ s⁻¹ and 5.2 ± 1.0 M⁻¹ s⁻¹
  Activity of CpdB_Ndom on substrate (hydrolytic rate): almost complete loss of activities
[7]
  Activity of His^117Ala-CpdB on substrate: essentially inactive
[8]
  K M: 850 ± 110 µM
  k cat: 160 ± 37 s⁻¹
[9]
  KM increase by the Tyr^544Ala mutation: 60 fold
[4]
  Ki: 3300 ± 550 µM
[6]
  IC50: 4100 µM
[1]
  IC50: 54 µM
  Ki: 3.6 ± 0.2 µM
[3]
  K M: 14 µM
  k cat: 176 s⁻¹

## Nc1ncnc2c1ncn2[C@@H]1O[C@H](CO)[C@@H](O)[C@H]1OP(=O)(O)O [2′-AMP]
[2]
  Activity of CpdB_Ndom on substrate (hydrolytic rate): absence of detectable activity
[5]
  IC50: 320 µM
  Ki: 7.1 ± 3.2 µM
[6]
  IC50: 920 µM
  Ki: 600 µM
[1]
  IC50: 100 µM
  Ki: 8.8 ± 2 µM

## Nc1nc2c(ncn2[C@@H]2O[C@H](CO)[C@H]3OP(=O)(O)O[C@H]32)c(=O)[nH]1 [2′,3′-cGMP]
[2]
  K M: 570 ± 160 µM
  k cat: 58 ± 16 s⁻¹
  k cat /K M: 100,000 ± 13,000 M^−1 s^−1
[3]
  K M: 25 µM
  k cat: 84 s⁻¹
  k cat /K M (catalytic efficiency): 3,500,000 M^−1 s^−1

## O=c1ccn([C@@H]2O[C@H](CO)[C@H]3OP(=O)(O)O[C@H]32)c(=O)[nH]1 [2′,3′-cUMP]
[2]
  K M: 630 ± 170 µM
  k cat: 155 ± 32 s⁻¹
  k cat /K M: 250,000 ± 50,000 M^−1 s^−1
[3]
  K M: 62 µM
  k cat: 260 s⁻¹
  k cat /K M (catalytic efficiency): 4,200,000 M^−1 s^−1

## Nc1ccn([C@@H]2O[C@H](CO)[C@H]3OP(=O)(O)O[C@H]32)c(=O)n1 [2′,3′-cCMP]
[2]
  K M: 180 ± 50 µM
  k cat: 33 ± 5 s⁻¹
  k cat /K M: 200,000 ± 80,000 M^−1 s^−1
[3]
  K M: 12 µM
  k cat: 100 s⁻¹
  k cat /K M (catalytic efficiency): 8,500,000 M^−1 s^−1

## C[N+](C)(C)CCOP(=O)(O)OP(=O)([O-])OC[C@H]1O[C@@H](n2ccc(N)nc2=O)[C@H](O)[C@@H]1O [CDP-choline]
[2]
  K M: 2900 ± 1700 µM
  k cat: 5.7 ± 3.5 s⁻¹
  k cat /K M: 1950 ± 130 M⁻¹ s⁻¹
[3]
  K M: 219 µM
  k cat: 0.51 s⁻¹
  k cat /K M (catalytic efficiency): 2300 M⁻¹ s⁻¹

## O=[N+]([O-])c1ccc(OP(=O)(O)Oc2ccc([N+](=O)[O-])cc2)cc1 [bis-4-NPP, bis-4-nitrophenylphosphate]
[2]
  K M: 1300 ± 80 µM
  k cat: 164 ± 14 s⁻¹
  k cat /K M: 130,000 ± 7000 M^−1 s^−1
[7]; His^117Ala-CpdB versus wild-type mature CpdB, same substrate
  Catalytic efficiency (kcat/KM) lower than wild-type mature CpdB: 60 fold
[7]; [10]
  K M: 440 ± 90 µM
  k cat: 26 ± 3 s⁻¹
  k cat /K M: 60,000 ± 7000 M^−1 s^−1
[8]
  K M: 430 ± 30 µM
  k cat: 130 ± 34 s⁻¹
  k cat /K M: 300,000 ± 100,000 M^−1 s^−1
[9]
  KM increase by the Tyr^544Ala mutation: five-fold
[3]
  K M: 96 µM
  k cat: 340 s⁻¹
  k cat /K M (catalytic efficiency): 3.6 × 10^6 M^−1 s^−1 and 3,600,000 M^−1 s^−1
